System: intestinal Caco-2 cells
Assay: Impedance measurement of Caco-2 cells in culture after adding cupric chloride
Assay type: cell-based
Text: The device used is specifically described as follows. That is, the support body is made of PDMS, and the size of the compartment in the support body (the combined size of the upper compartment and the lower compartment) is 15 mm in length, 6 mm in width, and 1.6 mm in height. This compartment is divided into an upper compartment and a lower compartment each with a height of approximately 0.8 mm using a polyester porous membrane which is provided with a diameter of 0.4 μm and a thickness of 14 μm (code 3450, made by CORNING INC.). Gold-plated brass nail-shaped objects with a length of 15 mm, an external diameter of 0.5 mm, and its circular head portion with a thickness of 0.4 mm and a diameter of 1.2 mm are used as the upper electrode and the lower electrode using a flat surface of the head portion as a measuring surface. Also, the upper electrode is fixed to the support body with its surface opposite to the surface facing the lower electrode in contact with the inside surface of the upper support body, while the lower electrode is fixed to the support body with its surface facing the upper electrode in contact with the semipermeable membrane. At this time, the distance between the surfaces of the upper electrode that faces the lower electrode and the lower electrode is 0.4 mm. Then, these electrodes are connected to an alternating-current power supply. Culturing conditions: As the culture medium, 10% fetal bovine serum, 1% MEM nonessential amino acid solution, 20 mM HEPES buffer solution, […] penicillin, 100 μg streptomycin, and 1 μg amphotericin added to DMEM (Dulbecco's Minimum Essential Medium) is used, and culturing is performed at an ambient temperature of 37 degrees C., with the carbon dioxide concentration maintained at 5%. Measurement condition: Measurement is performed by using a commercially available impedance analyzer, by applying an AC electrical field of 10 mV amplitude (1 Hz to 10 MHz) across the electrodes. Using the device used in Example 1, while culturing intestinal Caco-2 cells to which cupric chloride is added; impedance of the cells was measured. The culturing conditions of the cells and impedance measurement conditions are the same as in Example 1. The culture medium was replaced every two days, with the impedance measurement being performed before and after the culture medium replacement. Culturing was normally performed until the seventh day from the start of culturing. After impedance measurement, cupric chloride was added to a concentration of 30 μM to the culture medium, and the cell culturing was continued as it was from the moment directly after the cupric chloride was added (0 hours) to four hours after the addition. After the passage of four hours, the impedance was measured, and the culture medium containing the cupric chloride was washed away by a culture medium not containing the cupric chloride, accordingly washing was performed while the cells in culture were remained in the device. During this period, the impedance of the cells in culture was arbitrarily measured. In the legend shown in FIG. 3, “3 days” means the third day from the start of culturing, while “7 days (4 hours after addition)” means four hours after addition of cupric chloride to the culture medium on the seventh day from the start of culturing.

[Cl][Cu][Cl] [cupric chloride]
change in impedance amplitude (membranous structure) (30 μM for 4 h, then washed, 25 hours after the addition, breakdown of the membranous structure): reduction
impedance phase θ around 10^6 Hz region (30 μM for 4 h, then washed, 25 hours after the addition, curve shifted to higher frequency side): −53 degrees
impedance phase θ around 10^6 Hz region (30 μM for 4 h, then washed, 48 hours after the addition, curve shifted to lower frequency side): −58 degrees
change in impedance amplitude (membranous structure) (30 μM for 4 h, then washed, 48 hours after the addition, renewal of the membranous structure): increase
change in impedance amplitude (membranous structure) (30 μM in culture medium, added on seventh day of culturing, until four hours from the addition): hardly any changes
change in impedance phase spectra curve (30 μM, added on seventh day of culturing, until four hours from the addition): without large changes
